# Where two headings read alike, the source gives them in different places.
# What was measured:
# [1] = test system: Escherichia coli (ATCC 25922); assay: Susceptibility test (MIC) of fosfomycin against wild-type Escherichia coli; assay type: cell-based
# Protocol: MIC as used herein refers to the minimum inhibitory concentration (MIC) of an antimicrobial that will inhibit the visible growth of a microorganism after overnight incubation. MICs are important in diagnostic laboratories to confirm resistance of microorganisms to an antimicrobial agent and also to monitor the activity of new antimicrobial agents. A MIC is generally regarded as the most basic laboratory measurement of the activity of an antimicrobial agent against an organism. Clinically, the MICs are used not only to determine the amount of antibiotic that a patient will receive but also the type of antibiotic used, which in turn lowers the opportunity for microbial resistance to specific antimicrobial agents. Applying MIC testing to a number of bacterial strains in the same species provides an estimate of the concentration that inhibits 50% (MIC50) and 90% (MIC90) of bacterial isolates and can indicate shifts in susceptibility of bacterial populations to antibiotics.
# (§1) A dose-fractionation study was conducted utilizing a wild-type strain of Escherichia coli (ATCC 25922; fosfomycin MIC=0.5 mg/L agar; 1 mg/L broth microtiter) in a one-compartment in vitro infection model where the human drug concentration-time profile was simulated over a 24 hour study period.
# (§2) Another reason may be the volume of the micro-titer well (100-200 μL) used in the test method is small, containing 50,000-100,000 CFU. The inherently fosfomycin-resistant subpopulation has a frequency of 1 in 350,000 CFU. Thus, for fosfomycin, the standard susceptibility test method is an insensitive measure of the drug concentration required to inhibit a clinically relevant bacterial inoculum.
# [2] = test system: fosfomycin-resistant E. coli subpopulation (ATCC 25922); assay: Susceptibility (agar MIC, RIC) of the inherently fosfomycin-resistant subpopulation; assay type: cell-based, Escherichia coli; details: resistant subpopulation within the standard starting inoculum 5×10^5 CFU/mL
# Protocol: RIC as used herein refers to the resistant inhibitory concentration and identifies the concentrations of antimicrobial required to inhibit the less susceptible or ‘resistant’ mutant subpopulation of organisms. RIC is a new term coined by the inventors of the present invention and is utilized throughout the specification herewith.
# as §2
# (§3) Note the relatively stronger relationship between the change in bacterial density and AUC0-24:RIC ratio and % T>RIC compared with that for Cmax:RIC ratio, where RIC is the concentration needed to inhibit the fosfomycin-resistant subpopulation.
# [3] = test system: Escherichia coli (ATCC 25922); assay: Dose-fractionation study in a one-compartment in vitro infection model; assay type: cell-based
# Protocol: as §1
# In such a circumstance, one way to overcome the poor sensitivity of the susceptibility test method is to increase the inoculum size and/or the volume of test system. The one-compartment in vitro infection model is a much more sensitive tool to measure the drug concentration required to inhibit a clinically relevant bacterial inoculum owing to its ability accommodate a higher inoculum and the larger volume (125 mL) of the test system. For this reason, dose-fractionation studies were conducted using a one-compartment in vitro infection model to identify the PK-PD measure most closely associated with efficacy.
# as §3
# [4] = test system: Escherichia coli ATCC 25922; assay: Neutropenic murine-thigh infection model; assay type: in vivo; details: neutropenic mice
# Protocol: In vivo animal studies utilizing the neutropenic murine-thigh model were conducted to confirm key results obtained from the in vitro PK-PD infection models. Initial goals of the studies were to confirm the presence of a clinically-relevant fosfomycin-resistant subpopulation in vivo and to confirm % T>RIC was the PK-PD measure that predicted response.
# In brief, six-week-old specific-pathogen-free female CD1 (ICR/Swiss) mice were rendered neutropenic by two intra-peritoneal injections of cyclophosphamide, 150 mg/kg of body weight 4 days prior to the study and 100 mg/kg 1 day prior to the study. The challenge isolate was Escherichia coli ATCC 25922 (fosfomycin MIC, 1 mg/L), which was the same strain used in the aforementioned in vitro PK-PD infection model studies. […]
# To determine which PK-PD measure best described efficacy, the number of bacteria in the thigh at the end of 24 hours of therapy (or earlier for some of the lowest doses) was correlated with 1) the Cmax:MIC ratio, 2) the 24-hour AUC0-24:MIC ratio, 3) the percentage of the dosing interval during that serum concentrations exceed the MIC, and 4) the percentage of the dosing interval during that serum concentrations exceed the RIC for each of the dosage regimens studied. […] The correlation between efficacy and each of the […] PK-PD indices was determined by nonlinear least-squares multivariate regression. […]
compound,measurement,setting,value
C[C@@H]1O[C@@H]1P(=O)(O)O [fosfomycin],MIC,"[1]; ATCC25922, E. coli ATCC 25922 challenge isolate, method not stated, read-out: fosfomycin MIC of the challenge isolate",1 µg/mL
same,MIC,"[1]; ATCC25922, agar, wild-type E. coli ATCC 25922, read-out: fosfomycin MIC (agar)",0.5 µg/mL
same,MIC,"[1]; ATCC25922, broth microtiter, wild-type E. coli ATCC 25922, read-out: fosfomycin MIC (broth microtiter)",1 µg/mL
same,MIC,"[2]; Escherichia coli, ATCC25922, agar",32 to 64 µg/mL
same,agar MIC of the fosfomycin-resistant subpopulation,[2]; agar,32 µg/mL
same,relation of bacterial killing to dosing interval,"[3]; at maximally effective AUC0-24:RIC ratios and free-drug % T>RIC, 24 hour","as the duration of the dosing interval decreases, the amount of bacterial killing increases"
same,range of the change in bacterial density at 24 hours between regimens,"[3]; regimens identical in total daily dose and % T>MIC (100%), differing in dosing interval, simulated human concentration-time profile",8 log10
same,density of the drug-resistant subpopulation in the thighs after 24 hours of therapy,[4]; dose range 1.56 to 400 mg/kg every 3 hours,eliminated at the highest dose-level
same,PK-PD measure correlated with change in log10 CFU in the thighs after 24 hours of therapy,"[4]; dosing intervals of 3, 6, 12, and 24 hours",% T>RIC was well-correlated with change in bacterial density

# Reference: patent publication US10086006B2, “Method for improving drug treatments in mammals” (priority 2013, dated 2018)
